Reference: patent publication US20180343865A1, “HERBICIDAL COMPOSITIONS COMPRISING ISOXAZOLO[5,4-B]PYRIDINES” (BASF SE, priority 2015, published 2018)
Where “and” joins values, the source holds several entries; their conditions need not be identical. Equal entries are not always repeated. Where two headings read alike, the source gives them in different places.

Experiments:
Format in all cases: in vivo
Ipomoea hederacea = assay: Greenhouse postemergence herbicidal activity on IPOHE, 20 DAT; settings: for inhibition at 125 g/ha: 125 gai/ha
Experimental: (§1) For the post emergence treatment, the plants were first grown to the 2 leaf station (GS 12) and applied at GS 12-19 depending on the species. The herbicidal compositions were suspended or emulsified in water as distribution medium and sprayed using finely distributing nozzles.
(§2) The plants have been cultivated due to their individual requirements at 10 to 25° C. and. 20 to 35° C. The plants were irrigated due to their necessity.
(§3) The respective stated components A), were formulated as a 5% by weight strength emulsion concentrate containing wettol EM 31 20% and Cyclohexanone 80%. The respective stated components B), were formulated as either emulsifiable concentrates (EC), soluble liquids (SL), suspension concentrates (SC) or soluble granules (SG) as indicated in the table below. Component A, component B and the solvent system are introduced into the spray liquor used for applying the active compound. In the examples, the solvent used was water containing 1% Dash (Agnique ME 181 37.5%, Lutensit A-EP 22.5%, and Oleic Acid 5%) and 2% ammonium suflate.
(§4) In the following experiments, the herbicidal activity for the individual herbicide compounds (solo and mixture applications), the herbicidal succession was assessed 20 days after treatment (DAT). The evaluation for the damage on undesired weeds caused by the chemical compositions was carried out using a scale from 0 to 100%, compared to the untreated control plants. Here, 0 means no damage and 100 means complete destruction of the plants. The plants used in the greenhouse experiments belonged to the following species:
(§5) The value E, which corresponds to the effect (in %) that is to be expected if the activity of the individual compounds is additive, was calculated using the method of S. R. Colby (1967) “Calculating synergistic and antagonistic responses of herbicide combinations”, Weeds 15, p. 22 ff. Colby calculation for 2 way mixtures:
(§6) where: • X=effect in percent using herbicide A at an application rate a; • Y=effect in percent using herbicide B at an application rate b; • E=expected effect (in %) of A+B at application rates a+b
(§7) If the value observed in this manner is higher than the value E calculated according to Colby, a synergistic effect is present.

Polygonum persicaria = assay: Greenhouse postemergence herbicidal activity on POLPE, 20 DAT; settings: Persicaria maculosa, post-emergence, 480 h, POLPE, postemergence, 20 DAT, read-out: % activity, solo (I.A)
Experimental: as §1, §2, §3, §4, §5, §6, §7

Matricaria chamomilla = assay: Greenhouse postemergence herbicidal activity on MATCH, 20 DAT; settings: Matricaria chamomilla, post-emergence, 62.5 gai/ha
Experimental: as §1, §2, §3, §4, §5, §6, §7

Ambrosia elatior = assay: Greenhouse postemergence herbicidal activity on AMBEL, 20 DAT; settings: AMBEL, postemergence, 20 DAT
Experimental: as §1, §2, §3, §4, §5, §6, §7

Polygonum aviculare = assay: Greenhouse postemergence herbicidal activity on POLAV, 20 DAT; settings: Polygonum aviculare, post-emergence, 480 h, read-out: % activity, solo (I.A)
Experimental: as §1, §2, §3, §4, §5, §6, §7

Chenopodium album = assay: Greenhouse postemergence herbicidal activity on CHEAL, 20 DAT; settings: for inhibition at 15.6 g/ha: 15.6 gai/ha; for inhibition at 125 g/ha: 125 gai/ha; for inhibition at 250 g/ha: 250 gai/ha
Experimental: as §1, §2, §3, §4, §5, §6, §7

Galium aparine = assay: Greenhouse postemergence herbicidal activity on GALAP, 20 DAT; settings: Galium aparine, post-emergence; for inhibition at 31.25 g/ha: 31.25 gai/ha; for inhibition at 62.5 g/ha: 62.5 gai/ha; for inhibition at 125 g/ha: 125 gai/ha; for inhibition at 250 g/ha: 250 gai/ha
Experimental: as §1, §2, §3, §4, §5, §6, §7

Amaranthus palmeri = assay: Greenhouse postemergence herbicidal activity on AMAPA, 20 DAT
Experimental: as §1, §2, §3, §4, §5, §6, §7

[1] = Table 8, read-out: % activity, solo application (I.A)
[2] = 480 h, 20 DAT, read-out: % activity, solo (I.A)
[3] = Chenopodium album, post-emergence, Table 6, read-out: % activity, solo application (I.A)
[4] = Chenopodium album, post-emergence, 480 h, 20 DAT, read-out: % activity, solo (I.A)
[5] = Table 6, read-out: % activity, solo application (I.A)

CC(C)c1noc2nc(C3CC3)cc(C(=O)O)c12 [(I.A)]
% activity, solo (I.A) (Ipomoea hederacea; 31.25 gai/ha, 20 DAT): 95% | % activity, solo (I.A) (Ipomoea hederacea; 62.5 gai/ha, 20 DAT): 95% | inhibition at 31.25 g/ha (Ipomoea hederacea; Ipomoea hederacea, post-emergence, 31.25 gai/ha, Table 6, read-out: % activity, solo application (I.A)): 75% | inhibition at 31.25 g/ha (Ipomoea hederacea; Ipomoea hederacea, post-emergence, 31.25 gai/ha, Table 8, read-out: % activity, solo application (I.A)): 50% | inhibition at 62.5 g/ha (Ipomoea hederacea; Ipomoea hederacea, post-emergence, 62.5 gai/ha, Table 6, read-out: % activity, solo application (I.A)): 87% | inhibition at 125 g/ha (Ipomoea hederacea; Ipomoea hederacea, post-emergence, Table 6, read-out: % activity, solo application (I.A)): 98% | inhibition at 128 g/ha (Ipomoea hederacea; Ipomoea hederacea, post-emergence, 128 gai/ha, Table 6, read-out: % activity, solo application (I.A)): 98% | inhibition at 250 g/ha (Ipomoea hederacea; Ipomoea hederacea, post-emergence, 250 gai/ha, Table 6, read-out: % activity, solo application (I.A)): 99% | inhibition at 15.6 g/ha (Ipomoea hederacea; Ipomoea hederacea, post-emergence, 480 h, 15.6 gai/ha, 20 DAT, read-out: % activity, solo (I.A)): 65% | inhibition at 31.25 g/ha (Ipomoea hederacea; Ipomoea hederacea, post-emergence, 480 h, 31.25 gai/ha, 20 DAT, read-out: % activity, solo (I.A)): 75% | inhibition at 62.5 g/ha (Ipomoea hederacea; Ipomoea hederacea, post-emergence, 480 h, 62.5 gai/ha, 20 DAT, read-out: % activity, solo (I.A)): 87% | inhibition at 125 g/ha (Ipomoea hederacea; Ipomoea hederacea, post-emergence, 480 h, 20 DAT, read-out: % activity, solo (I.A)): 98% | inhibition at 15.6 g/ha (Polygonum persicaria; 15.6 gai/ha): 70% | inhibition at 31.25 g/ha (Polygonum persicaria; 31.25 gai/ha): 80% | inhibition at 62.5 g/ha (Matricaria chamomilla; [1]): 70% | inhibition at 62.5 g/ha (Matricaria chamomilla; [2]): 65% | % activity, solo (I.A) (Ambrosia elatior; 31.25 gai/ha): 50% and 25% | inhibition at 15.6 g/ha (Ambrosia elatior; Ambrosia artemisiifolia, post-emergence, 480 h, 15.6 gai/ha, read-out: % activity, solo (I.A)): 0% | inhibition at 62.5 g/ha (Ambrosia elatior; Ambrosia artemisiifolia, post-emergence, 480 h, 62.5 gai/ha, read-out: % activity, solo (I.A)): 70% | inhibition at 15.6 g/ha (Polygonum aviculare; 15.6 gai/ha): 10% | inhibition at 31.25 g/ha (Polygonum aviculare; 31.25 gai/ha): 35% | inhibition at 62.5 g/ha (Polygonum aviculare; 62.5 gai/ha): 50% | inhibition at 125 g/ha (Polygonum aviculare; 125 gai/ha): 90% | % activity, solo (I.A) (Chenopodium album; 62.5 gai/ha, 20 DAT): 65% and 93% | inhibition at 7.8 g/ha (Chenopodium album; Chenopodium album, post-emergence, 7.8 gai/ha, Table 8, read-out: % activity, solo application (I.A)): 50% | inhibition at 15.6 g/ha (Chenopodium album; Chenopodium album, post-emergence, Table 8, read-out: % activity, solo application (I.A)): 85% | inhibition at 31.25 g/ha (Chenopodium album; Chenopodium album, post-emergence, 31.25 gai/ha, Table 6, read-out: % activity, solo application (I.A)): 58% | inhibition at 62.5 g/ha (Chenopodium album; Chenopodium album, post-emergence, 62.5 gai/ha, Table 6, read-out: % activity, solo application (I.A)): 78% | inhibition at 125 g/ha (Chenopodium album; [3]): 83% | inhibition at 250 g/ha (Chenopodium album; [3]): 98% | inhibition at 15.6 g/ha (Chenopodium album; [4]): 10% | inhibition at 125 g/ha (Chenopodium album; [4]): 83% | inhibition at 250 g/ha (Chenopodium album; [4]): 98% | inhibition at 31.25 g/ha (Galium aparine; [5]): 43% | inhibition at 62.5 g/ha (Galium aparine; [5]): 60% | inhibition at 62.5 g/ha (Galium aparine; [1]): 45% | inhibition at 125 g/ha (Galium aparine; [5]): 73% | inhibition at 250 g/ha (Galium aparine; [5]): 95% | inhibition at 31.25 g/ha (Galium aparine; [2]): 43% | inhibition at 62.5 g/ha (Galium aparine; [2]): 60% | inhibition at 125 g/ha (Galium aparine; [2]): 73% | inhibition at 250 g/ha (Galium aparine; [2]): 95% | % activity, solo (I.A) (Amaranthus palmeri; 62.5 gai/ha): 89% | inhibition at 15.6 g/ha (Amaranthus palmeri; Amaranthus palmeri, post-emergence, 480 h, 15.6 gai/ha, read-out: % activity, solo (I.A)): 5% | inhibition at 31.25 g/ha (Amaranthus palmeri; Amaranthus palmeri, post-emergence, 480 h, 31.25 gai/ha, read-out: % activity, solo (I.A)): 80% | inhibition at 62.5 g/ha (Amaranthus palmeri; Amaranthus palmeri, post-emergence, 480 h, 62.5 gai/ha, read-out: % activity, solo (I.A)): 80%
